Data reported in patent US20260007679A1, “METHODS OF TREATING CANCER USING 3-(4-((4-(MORPHOLINOMETHYL)BENZYL)OXY)-1-OXOISOINDOLIN-2-YL)PIPERIDINE-2,6-DIONE” (Celgene Corporation, priority 2012, published 2026).
Where two headings read alike, the source gives them in different places.

Tests used:
Format in all cases: cell-based
[1] = test system: human peripheral blood mononuclear cells; experiment: Cytokine profiling in LPS-stimulated hPBMC; conditions: for IL-10 (% of control) / MCP-1 (% of control) / RANTES (% of control): 0.1 μM concentration; for IC50: Homo sapiens, PBMC, 18 h, LPS 1 ng/ml, 18 hours
Procedure: Fifty ml human buffy coat was aliquoted 25 ml each into two 50 ml conical tubes and 25 ml sterile HBSS was added to each conical tube. The tubes were gently mixed by inverting. Fifteen ml of room temperature Ficoll-Paque Plus (GE Healthcare (location); cat #17-1440-02) was aliquoted into four 50 ml conical tubes. Then 25 ml of the Buffy coat/IBSS mixture was layered gently and slowly on top of the Ficoll. The samples were centrifuged at 450 rpm for 35 minutes. The top layered containing plasma was pipetted off and discarded. The interface containing mononuclear cells was transferred into two 50 ml conical tubes. Both conical tubes were filled to total volume of 50 ml with HBSS and centrifuged at 1200 rpm for 10 minutes. The cells were washed again in HBSS and spun at 1000 rpm for 10 minutes. Cell pellet was resuspended with 20 ml RPMI complete medium (RPMI/5% human sera/1× pen/strep/glut) and counted.
One hundred μl (2×10^6/ml) of hPBMCs were added to each well of a 96 well flat-bottom plate (final cell count=2×10^5/well) and incubated at 37° C. for 1 hour. Twenty μl (10×) compound was added to each test well and twenty μl medium containing 2.5% DMSO was added to each control well ([DMSO]final=0.25%) and plate was incubated for 1 hour at 37° C. Cells were then stimulated with 80 μl of 2.5 ng/ml LPS ([LPS]final=1 ng/ml) and incubated for 18 hours at 37° C. Fifty μl supernatant from each well was transferred into 3 new round-bottomed 96 well plates and stored at −20° C. for Luminex analysis. Duplicate wells were performed for each sample.
Supernatant samples were analyzed for cytokines in multiplex format according to the manufacturer's instructions (Millipore, Billerica, Ma 01821) using a Luminex IS100 instrument. IL-12 and GM-CSF analyses were done in a two-plex format using neat supernatants while all other cytokines were done in a multiplex format using supernatants diluted 1:20. Data analysis was performed using Upstate Beadview software. […] The IC50 were performed using GraphPad Prism v5.00. The data values represent the mean+SEM (standard error of the mean) of n (number of experiments in duplicate).

[2] = test system: rat aorta; experiment: Rat aorta assay
Procedure: Compounds I, I-R, and I-S were tested in various angiogenesis inhibition assays.

[3] = test system: Human umbilical vascular endothelial cells; experiment: Growth factor-induced HUVEC tube formation assay; conditions: for VEGF-induced HUVEC tube formation (tube length and tube area): VEGF 25 ng/mL
Procedure: Human Umbilical Vascular Endothelial Cell Tube Formation Assay: Compounds were tested in the growth factor-induced HUVEC tube formation assay. The tube formation plates were incubated at 37° C. for 30 minutes for matrigel to polymerize. The HUVECs were starved in 0.1% BSA basal EBM2 medium for 5 hours after washing with the same medium 3 times. The cells were trypsinized and centrifuged. Then 25 μL of 4× serially diluted compounds (10, 1, 0.1, 0.01, 0.001, 0.0001, 0.00001 μM) were added in duplicate with 50 μL of 2×10^4 cells/well to tube formation plates coated with matrigel. […] of 4×VEGF (final concentration=25 ng/mL) or bFGF (final concentration=10 ng/mL) were added to the plates. The cells were then incubated overnight (˜18 hours) at 37° C. in a humidified incubator. The tubule webs were stained with calcein AM at 4 g/L in 2% FBS/IBSS for 30 minutes and images taken by fluorescence microscopy. The tubules were quantified by the MetaMorph tube formation software program for tube area and tube length.
The percentage inhibition of cell proliferation, tube formation, migration, and invasion was calculated by subtracting the result for unstimulated DMSO control from test sample results, averaging all replicates, and normalizing to the growth factor-stimulated DMSO control (0% inhibition). The IC50 values were calculated by using GraphPad Prism 5.0.

[4] = test system: megakaryocyte progenitor cells (normal human bone marrows); experiment: Megakaryocyte colony formation assay; conditions: for IC50: Homo sapiens, 14-16 days
Procedure: Colony formation assay was conducted with normal human bone marrows treated in semi-solid collagen matrix with compound/IL-3/IL-6/Tpo for 14-16 days, and the results are summarized in Table 7.

[5] = test system: anti-CD3-stimulated human T cells; experiment: Cytokine production by T cells (multi-plex CBA); conditions: for IL-10 production at high concentration: >10 nM; for concentrations that enhanced IL-2, IL-3, IL-5, IL-10, IL-13, GM-CSF, IFN-γ, TNF-α and RANTES: for compound I RANTES at 10 nM
Procedure: T cells were isolated from buffy coat by negative selection using the RosetteSep® T Cell Enrichment Cocktail. The manufacturer's procedures were followed accordingly. All 96-well plates were pre-coated with […] anti-human CD3 antibody in 100 μl 1×PBS for 4 hours at 37° C. The plates were washed three times with RPMI-1640 Complete Media prior to the T cell assay. T cells were then plated in CD3 pre-coated plates at a density of 2.5×10^5 cells/well in 180 μl RPMI-1640 Complete Media. The cells were treated with 20 μl 10× titrated compounds at 10, 1, 0.1, 0.01, 0.001, 0.0001 and 0.00001 μM. Final DMSO concentrations were 0.25%. The plates were incubated for 48 hours at 37° C., 5% CO2. After 48 hours, the supernatants were harvested and tested by a multi-plex cytometric bead array (CBA) assay for the following cytokines/chemokines: IL-2, IL-3, IL-5, IL-10, IL-13, IL-15, IL-17a, GM-CSF, G-SCF, IFN-γ, TNF-α and RANTES. The CBA plates were analyzed on the Luminex IS100 instrument. Data from each donor was graphed using GraphPad Prism 5.0 software and expressed as mean pg/mL±SEM and % of DMSO control±SEM.

[6] = read-out: GM-CSF production IC50
[7] = read-out: IL-1β production IC50
[8] = read-out: MIP-1α production IC50
[9] = read-out: MIP-1β production IC50
[10] = read-out: TNF-α production IC50
[11] = Bone Marrow ID 0090128, read-out: Immature Colony IC50
[12] = Bone Marrow ID 0090128, read-out: Intermediate Colony IC50
[13] = Bone Marrow ID 0090616, read-out: Immature Colony IC50
[14] = Bone Marrow ID 0090616, read-out: Intermediate Colony IC50
[15] = Bone Marrow ID 0090714, read-out: Immature Colony IC50
[16] = Bone Marrow ID 0090714, read-out: Intermediate Colony IC50

IC50 [1, 6] | IC50 [1, 7] | IC50 ([1]; read-out: IL-6 production IC50) | IC50 ([1]; read-out: IL-8 production IC50) | IC50 ([1]; read-out: MDC production IC50) | IC50 [1, 9] | IC50 [1, 10] | SMILES | IL-10 (% of control) [1] | MCP-1 (% of control) [1] | RANTES (% of control) [1] | anti-angiogenic activity in rat aorta assay [2] | VEGF-induced HUVEC tube formation (tube length and tube area) [3] | IC50 [4, 11] | IC50 [4, 12] | IC50 [4, 13] | IC50 [4, 14] | IC50 [4, 15] | IC50 [4, 16] | GM-CSF production, times those of control cells ([5]; 10 nM) | IL-2 production, times those of control cells ([5]; 10 nM) | other results
2.2 nM | 0.46 nM | 3.8 nM | > 10000 nM | 2.1 nM | > 10000 nM | 0.59 nM | O=C1CC[C@H](N2Cc3c(OCc4ccc(CN5CCOCC5)cc4)cccc3C2=O)C(=O)N1 [Compound I-S, (S)-3-(4-((4-(morpholinomethyl)benzyl)oxy)-1-oxoisoindolin-2-yl)piperidine-2,6-dione] | 379 % of control | 233 % of control | 153 % of control | modest anti-angiogenic activity | trend toward inhibiting | 80 nM | 9200 nM | 40 nM | 650 nM | 50 nM | 860 nM | 5 times | 18 times | IC50 [1, 8]: 28 nM; effect on megakaryocyte progenitor cells [4]: inhibited megakaryocyte progenitor cells; concentration at which enhancement of IL-5 production peaked [5]: 1 nM; IL-5 production, times over that of control cells ([5]; 1 nM): 6 times; IL-13 production, times those of control cells ([5]; 10 nM): 7 times; IL-10 production at high concentration [5]: inhibited; concentrations that enhanced IL-2, IL-3, IL-5, IL-10, IL-13, GM-CSF, IFN-γ, TNF-α and RANTES [5]: ≥ 1 nM
39 nM | 6.2 nM | 83 nM | > 10000 nM | 12 nM | > 10000 nM | 9.5 nM | O=C1CC[C@@H](N2Cc3c(OCc4ccc(CN5CCOCC5)cc4)cccc3C2=O)C(=O)N1 [Compound I-R, (R)-3-(4-((4-(morpholinomethyl)benzyl)oxy)-1-oxoisoindolin-2-yl)piperidine-2,6-dione] | 442 % of control | 223 % of control | 151 % of control | modest anti-angiogenic activity | trend toward inhibiting | 10000 nM | > 10000 nM | 400 nM | > 10000 nM | 400 nM | > 10000 nM | 6 times | 15 times | inhibition of tube area and length ([3]; VEGF-induced, 10 μM, p<0.05 vs stimulated DMSO control): significant inhibition; IL-13 production, times those of control cells ([5]; 10 nM): 7 times; IL-10 production enhancement ([5]; 0.01 to 1 nM): ~6 fold; IL-5 production, times that of control cells ([5]; 1 to 100 nM): up to 2.5 times; IL-10 production at high concentration [5]: inhibited; concentrations that enhanced IL-2, IL-3, IL-5, IL-10, IL-13, GM-CSF, IFN-γ, TNF-α and RANTES [5]: ≥ 1 nM

SMILES | IC50 [1, 6] | IC50 [1, 7] | IC50 ([1]; read-out: IL-6 production IC50) | IC50 ([1]; read-out: IL-8 production IC50) | IC50 ([1]; read-out: MDC production IC50) | IC50 [1, 9] | IC50 [1, 10] | IL-10 (% of control) [1] | MCP-1 (% of control) [1] | RANTES (% of control) [1] | anti-angiogenic activity in rat aorta assay [2] | VEGF-induced HUVEC tube formation (tube length and tube area) [3] | IC50 [4, 11] | IC50 [4, 12] | IC50 [4, 13] | IC50 [4, 14] | IC50 [4, 15] | IC50 [4, 16] | GM-CSF production, times those of control cells ([5]; 10 nM) | IL-2 production, times those of control cells ([5]; 10 nM) | other results
O=C1CCC(N2Cc3c(OCc4ccc(CN5CCOCC5)cc4)cccc3C2=O)C(=O)N1 (racemic) [Compound I, 3-(4-((4-(morpholinomethyl)benzyl)oxy)-1-oxoisoindolin-2-yl)piperidine-2,6-dione] | 9.2 nM | 0.85 nM | 10 nM | > 10000 nM | 2.6 nM | > 10000 nM | 1.8 nM | 372 % of control | 208 % of control | 153 % of control | modest anti-angiogenic activity | trend toward inhibiting | 100 to 1000 nM | > 10000 nM | 60 nM | > 10000 nM | 50 nM | > 10000 nM | 6 times | 22 times | IC50 [1, 8]: 190 nM; concentration at which enhancement of IL-5 production peaked [5]: 1 nM; GM-CSF production, times those of control cells ([5]; 1 nM): 3 times; IL-2 production, times those of control cells ([5]; 1 nM): 7 times; IL-5 production, times over that of control cells ([5]; 1 nM): 6 times; IL-13 production, times those of control cells ([5]; 1 nM): 5 times; IL-5 production enhancement ([5]; 10 nM): ≤ 2 fold; IL-13 production, times those of control cells ([5]; 10 nM): 6.5 times; IL-10 production at high concentration [5]: inhibited
